{
  "source": "ChEMBL document CHEMBL3808277",
  "about": "“Identification of a Potent and Selective GPR4 Antagonist as a Drug Lead for the Treatment of Myocardial Infarction” (ACS Med Chem Lett, 2016)",
  "key": {"[1]": {"molecular_target": "T1, G-prodeshotein coupled receptor 4 (Homo sapiens, UniProt P46093)", "test": "Antagonist activity at N-terminal HA-tagged GPR4 (unknown origin) expressed in HEK293 cells assessed as pH dependent cAMP response element-driven transcriptional activity ratio at 10 uM at pH 7.2 incubated for 6 hrs by dual luciferase reporter gene assay relative to untreated control", "format": "functional, cell-based"}, "[2]": {"molecular_target": "T1, G-prodeshotein coupled receptor 4", "test": "Antagonist activity at N-terminal HA-tagged GPR4 (unknown origin) expressed in HEK293 cells assessed as inhibition of pH dependent cAMP response element-driven transcriptional activity at pH 7.2 incubated for 6 hrs by dual luciferase reporter gene assay", "format": "functional, cell-based"}, "[3]": {"test_system": "Mus musculus", "test": "(§1) Increase in survival of C57BL/6J mouse permanent left anterior descending coronary artery ligation model of myocardial infarction assessed as survival rate at 20 mg/kg/day, ip bid dosed from 1 day before to 7 day after myocardial infarction without operation day measured up to 28 days (reference value: 14.3 %)", "format": "functional"}, "[4]": {"test_system": "Mus musculus", "test": "as §1, with “6.7” for “20”", "format": "functional"}, "[5]": {"molecular_target": "T2, G-protein coupled receptor 65 (Homo sapiens, UniProt Q8IYL9)", "T2 sequence (Q8IYL9 whole entry)": "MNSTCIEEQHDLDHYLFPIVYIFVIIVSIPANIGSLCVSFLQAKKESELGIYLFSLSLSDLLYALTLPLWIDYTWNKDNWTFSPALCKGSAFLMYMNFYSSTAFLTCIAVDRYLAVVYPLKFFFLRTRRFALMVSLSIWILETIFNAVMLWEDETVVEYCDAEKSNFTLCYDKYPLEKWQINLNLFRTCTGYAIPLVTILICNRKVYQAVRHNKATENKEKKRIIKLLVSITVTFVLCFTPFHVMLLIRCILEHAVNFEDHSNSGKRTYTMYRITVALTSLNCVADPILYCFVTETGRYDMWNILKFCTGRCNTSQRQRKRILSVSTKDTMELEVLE", "test": "Antagonist activity at N-terminal HA-tagged TDAG8 receptor (unknown origin) expressed in HEK293 cells assessed as inhibition of pH dependent cAMP response element-driven transcriptional activity at pH 7.2 incubated for 6 hrs by dual luciferase reporter gene assay", "format": "functional, cell-based"}, "[6]": {"molecular_target": "T3, G-protein coupled receptor 68 (Homo sapiens, UniProt Q15743)", "T3 sequence (Q15743 whole entry)": "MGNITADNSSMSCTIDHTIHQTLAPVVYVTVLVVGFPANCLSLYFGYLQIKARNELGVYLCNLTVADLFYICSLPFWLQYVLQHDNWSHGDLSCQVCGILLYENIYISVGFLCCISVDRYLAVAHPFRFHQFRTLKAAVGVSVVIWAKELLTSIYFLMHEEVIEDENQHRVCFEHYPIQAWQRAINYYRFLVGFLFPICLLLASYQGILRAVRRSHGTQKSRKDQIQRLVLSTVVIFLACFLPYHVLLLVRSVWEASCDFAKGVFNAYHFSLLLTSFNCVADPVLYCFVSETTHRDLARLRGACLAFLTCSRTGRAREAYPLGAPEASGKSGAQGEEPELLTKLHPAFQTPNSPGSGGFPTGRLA", "test": "Antagonist activity at N-terminal HA-tagged OGR1 (unknown origin) expressed in HEK293 cells assessed as inhibition of pH dependent nuclear factor of activated T-cell activity at pH 7.2 incubated for 6 hrs by dual luciferase reporter gene assay", "format": "cell-based"}, "[7]": {"molecular_target": "T3, G-protein coupled receptor 68", "test": "Antagonist activity at N-terminal HA-tagged OGR1 (unknown origin) expressed in HEK293 cells assessed as inhibition of pH dependent nuclear factor of activated T-cell activity at >1 uM at pH 7.2 incubated for 6 hrs by dual luciferase reporter gene assay", "format": "cell-based"}, "[8]": {"molecular_target": "T2, G-protein coupled receptor 65", "test": "Antagonist activity at N-terminal HA-tagged TDAG8 receptor (unknown origin) expressed in HEK293 cells assessed as inhibition of pH dependent cAMP response element-driven transcriptional activity at >1 uM at pH 7.2 incubated for 6 hrs by dual luciferase reporter gene assay", "format": "functional, cell-based"}},
  "note": "The source made the active and inactive calls. The rule behind the calls is not given here.",
  "data": [
    {"compound": "c1ccc2c(c1)CCc1cc(Cn3c4ccccc4c4ccccc43)ccc1N2", "values": [
      {"measurement": "Ratio", "setting": "[1]", "result": 1.03}
    ]},
    {"compound": "CCc1nc2c(C)cc(C)nc2n1Cc1ccccc1", "values": [
      {"measurement": "Ratio", "setting": "[1]", "result": 0.72}
    ]},
    {"compound": "CCc1nc2c(C)cc(C)nc2n1Cc1ccc2c(c1)CCc1cc(CN3CCOCC3)ccc1N2", "values": [
      {"measurement": "Ratio", "setting": "[1]", "result": 0.41}
    ]},
    {"compound": "Cc1nccn1Cc1ccc2c(c1)CCc1ccccc1N2", "values": [
      {"measurement": "Ratio", "setting": "[1]", "result": 1.24}
    ]},
    {"compound": "Cc1nc2ccccc2n1Cc1ccc2c(c1)CCc1ccccc1N2", "values": [
      {"measurement": "Ratio", "setting": "[1]", "result": 0.57}
    ]},
    {"compound": "c1ccc2c(c1)CCc1cc(Cn3cnc4ccccc43)ccc1N2", "values": [
      {"measurement": "Ratio", "setting": "[1]", "result": 0.52},
      {"measurement": "IC50", "setting": "[2]", "result": "> 10", "unit": "µM"}
    ]},
    {"compound": "CCc1nc2ccccc2n1Cc1ccc2c(c1)CCc1ccccc1N2", "values": [
      {"measurement": "Ratio", "setting": "[1]", "result": 0.44},
      {"measurement": "IC50", "setting": "[2]", "result": "> 10", "unit": "µM"}
    ]},
    {"compound": "c1ccc2c(c1)CCc1cc(Cn3ccc4ccccc43)ccc1N2", "values": [
      {"measurement": "Ratio", "setting": "[1]", "result": 0.44}
    ]},
    {"compound": "CCc1nccn1Cc1ccc2c(c1)CCc1ccccc1N2", "values": [
      {"measurement": "Ratio", "setting": "[1]", "result": 1.22}
    ]},
    {"compound": "CCc1nc2c(C)cc(C)nc2n1Cc1ccc2c(c1)Sc1ccccc1N2", "values": [
      {"measurement": "Ratio", "setting": "[1]", "result": 0.38},
      {"measurement": "IC50", "setting": "[2]", "result": 0.91, "unit": "µM"}
    ]},
    {"compound": "CCc1nc2c(C)cc(C)nc2n1Cc1ccc2c(c1)CCc1cc(CN3CCCCC3)ccc1N2", "values": [
      {"measurement": "Ratio", "setting": "[1]", "result": 0.39},
      {"measurement": "survival at 20 mg/kg/day", "setting": "[3]", "result": 62.5, "unit": "%"},
      {"measurement": "survival at 6.7 mg/kg/day", "setting": "[4]", "result": 100, "unit": "%"},
      {"measurement": "IC50", "setting": "[5]", "result": "> 10", "unit": "µM"},
      {"measurement": "IC50", "setting": "[2]", "result": 0.067, "unit": "µM"},
      {"measurement": "IC50", "setting": "[6]", "result": "> 10", "unit": "µM"}
    ]},
    {"compound": "c1ccc2c(c1)CCc1cc(Cn3ccnc3)ccc1N2", "values": [
      {"measurement": "Ratio", "setting": "[1]", "result": 1.11}
    ]},
    {"compound": "CCc1nc2c(C)cc(C)nc2n1Cc1ccc2c(c1)CCc1ccccc1N2", "values": [
      {"measurement": "Ratio", "setting": "[1]", "result": 0.22},
      {"measurement": "IC50", "setting": "[2]", "result": 0.9, "unit": "µM"}
    ]},
    {"compound": "CCc1nc2c(C)cc(C)nc2n1Cc1ccc2c(c1)CCc1cc(CN3CCN(C)CC3)ccc1N2", "values": [
      {"measurement": "Ratio", "setting": "[1]", "result": 0.42},
      {"measurement": "inhibition", "setting": "[7]", "result": "Active"},
      {"measurement": "IC50", "setting": "[2]", "result": 0.13, "unit": "µM"},
      {"measurement": "inhibition", "setting": "[8]", "result": "Active"}
    ]},
    {"compound": "CCc1nc2c(C)cc(C)nc2n1Cc1ccc2c(c1)C=Cc1ccccc1N2", "values": [
      {"measurement": "Ratio", "setting": "[1]", "result": 0.36}
    ]},
    {"compound": "CCc1nc2c(C)cc(C)nc2n1Cc1ccc2c(c1)CCc1cc(CN3CCCC3)ccc1N2", "values": [
      {"measurement": "Ratio", "setting": "[1]", "result": 0.4}
    ]},
    {"compound": "CCc1nc2c(C)cc(C)nc2n1Cc1ccc2ccccc2c1", "values": [
      {"measurement": "Ratio", "setting": "[1]", "result": 0.52}
    ]},
    {"compound": "CCc1nc2c(C)cc(C)nc2n1Cc1ccc(Nc2ccccc2)cc1", "values": [
      {"measurement": "Ratio", "setting": "[1]", "result": 0.54},
      {"measurement": "IC50", "setting": "[2]", "result": "> 10", "unit": "µM"}
    ]}
  ]
}
